Assay results as given in patent US20050239656A1, “Pyridine compounds or salts thereof and herbicides containing the same” (priority 2002, published 2005).

How the values were obtained:
crabgrass [1] = test: Test Example 2: soil surface treatment, upland pot test; format: in vivo, Digitaria sanguinalis L.; settings: active ingredient 500 g/ha
Method in brief: (§1)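 Pre-emergence: the soil surface was sprayed 1 day after sowing with wettable powder or emulsifiable concentrate diluted in water at 1,500 L/ha, at a predetermined active ingredient amount. Growth control was scored visually 20–28 days after treatment, 0 (untreated) to 100 (complete kill).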

rice [2] = test: Test Example 1: foliage treatment, upland pot test; format: in vivo, Oryza sativa L.; settings: crop, active ingredient 500 g/ha, observed 18th to 23rd day, 0 = non-treated, 100 = complete kill
Method in brief: (§2)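 Upland pot test, foliar. Soybean 0.1–0.4 / wheat 1.3–2.4 / rice 1.2–2.6 / barnyardgrass 1.3–2.8 leaf stage at spraying; 500 L/ha carrier, 0.1% (v/v) spreader. Visual % control, 0 untreated to 100 dead, days 18–23.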

prickly sida [3] = test: Test Example 2: soil surface treatment, upland pot test; format: in vivo, Sida spinosa L.; settings: active ingredient 500 g/ha
Method in brief: as §1

barnyardgrass [4] = test: Test Example 1: foliage treatment, upland pot test; format: in vivo, Echinochloa crus-galli L.; settings: active ingredient 500 g/ha, observed 18th to 23rd day, 0 = non-treated, 100 = complete kill
Method in brief: as §2

prickly sida [5] = test: Test Example 1: foliage treatment, upland pot test; format: in vivo, Sida spinosa L.; settings: active ingredient 500 g/ha, observed 18th to 23rd day, 0 = non-treated, 100 = complete kill
crabgrass [6] = test: Test Example 1: foliage treatment, upland pot test; format: in vivo, Digitaria sanguinalis L.; settings: active ingredient 500 g/ha, observed 18th to 23rd day, 0 = non-treated, 100 = complete kill
barnyardgrass [7] = test: Test Example 3: paddy pot test, application under submerged conditions; format: in vivo, Echinochloa crus-galli L.; settings: active ingredient 250 g/ha; submerged application at 0.5 leaf stage; visually observed 14 days after application; 0 = non-treated, 100 = complete kill
Method in brief: (§3)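 Visual growth-control rating (0 = untreated, 100 = complete kill) 14 days after treatment. The formulated compound, as a diluted wettable powder or emulsifiable concentrate, went into 3–4 cm flood water at a predetermined active-ingredient dose once the weeds reached 0.5 leaf stage (wapato: primary leaf stage).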

redroot pigweed [8] = test: Test Example 1: foliage treatment, upland pot test; format: in vivo, Amaranthus retroflexus L.; settings: active ingredient 500 g/ha, observed 18th to 23rd day, 0 = non-treated, 100 = complete kill
redroot pigweed [9] = test: Test Example 2: soil surface treatment, upland pot test; format: in vivo, Amaranthus retroflexus L.; settings: active ingredient 500 g/ha
Method in brief: as §1

japanese ribbon wapato = test: Test Example 3: paddy pot test, application under submerged conditions; format: in vivo, Sagittaria pygniaea; settings: active ingredient 250 g/ha; submerged application at primary leaf stage; visually observed 14 days after application; 0 = non-treated, 100 = complete kill
Method in brief: as §3

soybean [10] = test: Test Example 1: foliage treatment, upland pot test; format: in vivo, Glycine max Merr.; settings: crop, active ingredient 500 g/ha, observed 18th to 23rd day, 0 = non-treated, 100 = complete kill
Method in brief: as §2

rice (var. Nihonbare) = test: Test Example 3: paddy pot test, transplanted rice; format: in vivo, Oryza sativa L.; settings: active ingredient 250 g/ha, applied 4th day after transplantation, visually observed 21st day after application, 0 = non-treated, 100 = complete kill
Method in brief: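 Rice (var. Nihonbare) at 2 leaf stage transplanted 3 cm deep into puddled paddy soil under 3–4 cm flooding; on day 4 after transplanting, diluted wettable powder or emulsifiable concentrate applied by pipette under submerged conditions at a set active-ingredient dose. Growth scored visually 21 days after application, 0 (untreated) to 100 (complete kill) %.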

velvetleaf [11] = test: Test Example 1: foliage treatment, upland pot test; format: in vivo, Abutilon theophrasti MEDIC.; settings: active ingredient 500 g/ha, observed 18th to 23rd day, 0 = non-treated, 100 = complete kill
green foxtail [12] = test: Test Example 1: foliage treatment, upland pot test; format: in vivo, Setaria viridis L.; settings: active ingredient 500 g/ha, observed 18th to 23rd day, 0 = non-treated, 100 = complete kill
velvetleaf [13] = test: Test Example 2: soil surface treatment, upland pot test; format: in vivo, Abutilon theophrasti MEDIC.; settings: active ingredient 500 g/ha
Method in brief: as §1

corn [14] = test: as above; format: in vivo, Zea mays L.; settings: active ingredient 500 g/ha
Method in brief: as §1

green foxtail [15] = test: as above; format: in vivo, Setaria viridis L.; settings: active ingredient 500 g/ha
Method in brief: as §1

barnyardgrass [16] = test: as above; format: in vivo, Echinochloa crus-galli L.; settings: active ingredient 500 g/ha
Method in brief: as §1

soybean [17] = test: as above; format: in vivo, Glycine max Merr.; settings: active ingredient 500 g/ha
Method in brief: as §1

rice [18] = test: as above; format: in vivo, Oryza sativa L.; settings: active ingredient 500 g/ha
Method in brief: as §1

corn [19] = test: Test Example 1: foliage treatment, upland pot test; format: in vivo, Zea mays L.; settings: crop, active ingredient 500 g/ha, observed 18th to 23rd day, 0 = non-treated, 100 = complete kill
Method in brief: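 In this upland pot foliage test, corn plants at 2.1 to 3.2 leaf stages were sprayed by a small size sprayer. The spray was a conventionally formulated wettable powder or emulsifiable concentrate weighed to a set active ingredient amount, diluted in water at 500 L/ha, plus 0.1% (v/v) agricultural spreader. Visual assessment on days 18 to 23 gave growth controlling degree (%), where 0 equals untreated and 100 means complete kill.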

japanese bulrush = test: Test Example 3: paddy pot test, application under submerged conditions; format: in vivo, Scirpus juncoides; settings: active ingredient 250 g/ha; submerged application at 0.5 leaf stage; visually observed 14 days after application; 0 = non-treated, 100 = complete kill
Method in brief: as §3

[20] = observed day 21, 0 = non-treated, 100 = complete kill

SMILES	Growth controlling degree (%) Crabgrass (crabgrass [1]; [20])	Growth controlling degree (%) Rice (rice [2])	Growth controlling degree (%) Prickly sida (prickly sida [3]; [20])	Growth controlling degree (%) Barnyardgrass (barnyardgrass [4])	Growth controlling degree (%) Prickly sida (prickly sida [5])	Growth controlling degree (%) Crabgrass (crabgrass [6])	Growth controlling degree (%) Barnyardgrass (barnyardgrass [7])	Growth controlling degree (%) Redroot pigweed (redroot pigweed [8])	Growth controlling degree (%) Redroot pigweed (redroot pigweed [9]; [20])	Growth controlling degree (%) Japanese ribbon wapato (japanese ribbon wapato)	Growth controlling degree (%) Soybean (soybean [10])	Growth controlling degree (%) Rice (rice (var. Nihonbare))	Growth controlling degree (%) Velvetleaf (velvetleaf [11])	Growth controlling degree (%) Green foxtail (green foxtail [12])	Growth controlling degree (%) Velvetleaf (velvetleaf [13]; [20])	Growth controlling degree (%) Corn (corn [14]; [20])	Growth controlling degree (%) Green foxtail (green foxtail [15]; [20])	Growth controlling degree (%) Barnyardgrass (barnyardgrass [16]; [20])	Growth controlling degree (%) Corn (corn [19])	Growth controlling degree (%) Japanese bulrush (japanese bulrush)	further results
CC(C)C(c1cnccc1C(F)(F)F)N(C)C(=O)Cc1cccs1 (stereo not drawn) [I-258]	100%	10%	100%	80%	70%	90%	100%	80%	90%	70%	70%	30%	90%	50%	60%	0%	100%	100%	10%	98%	Growth controlling degree (%) Soyabean (soybean [17]; [20]): 10%; Growth controlling degree (%) Rice (rice [18]; [20]): 10%
CCC(C)C(c1cnccc1C(F)(F)F)N(C)C(=O)COc1ccccc1 (stereo not drawn) [I-261]	100%	20%	98%	70%	60%	60%	100%	50%	70%	70%	80%	20%	50%	60%	50%	20%	100%	90%	10%	95%	Growth controlling degree (%) Soyabean (soybean [17]; [20]): 20%; Growth controlling degree (%) Rice (rice [18]; [20]): 20%
CC(C)C(c1cnccc1C(F)(F)F)N(C)S(=O)(=O)c1ccccc1 (stereo not drawn) [I-117, N-methyl-N-[2-methyl-1-(4-trifluoromethylpyridin-3-yl)propyl]phenylsulfonamide]		20%		80%	70%	80%	95%	50%		0%	60%	0%	80%	40%					30%	98%	Growth controlling degree (%) Crabgrass (crabgrass [1]; observed 20th to 28th day): 95%; Growth controlling degree (%) Prickly sida (prickly sida [3]; observed 20th to 28th day): 70%; Growth controlling degree (%) Redroot pigweed (redroot pigweed [9]; observed 20th to 28th day): 60%; Growth controlling degree (%) Velvetleaf (velvetleaf [13]; observed 20th to 28th day): 50%; Growth controlling degree (%) Corn (corn [14]; observed 20th to 28th day): 20%; Growth controlling degree (%) Green foxtail (green foxtail [15]; observed 20th to 28th day): 100%; Growth controlling degree (%) Barnyardgrass (barnyardgrass [16]; observed 20th to 28th day): 100%; Growth controlling degree (%) Soyabean (soybean [17]; observed 20th to 28th day): 10%; Growth controlling degree (%) Rice (rice [18]; observed 20th to 28th day): 40%
COc1ccc(CC(=O)N(C)C(c2cnccc2C(F)(F)F)C(C)C)cc1 (stereo not drawn) [I-38]		10%		70%	70%	70%	100%	80%		85%	60%	30%	90%	60%					40%	70%	Growth controlling degree (%) Crabgrass (crabgrass [1]; observed 20th to 28th day): 90%; Growth controlling degree (%) Prickly sida (prickly sida [3]; observed 20th to 28th day): 100%; Growth controlling degree (%) Redroot pigweed (redroot pigweed [9]; observed 20th to 28th day): 80%; Growth controlling degree (%) Velvetleaf (velvetleaf [13]; observed 20th to 28th day): 0%; Growth controlling degree (%) Corn (corn [14]; observed 20th to 28th day): 10%; Growth controlling degree (%) Green foxtail (green foxtail [15]; observed 20th to 28th day): 80%; Growth controlling degree (%) Barnyardgrass (barnyardgrass [16]; observed 20th to 28th day): 100%; Growth controlling degree (%) Soyabean (soybean [17]; observed 20th to 28th day): 0%; Growth controlling degree (%) Rice (rice [18]; observed 20th to 28th day): 20%
CC(C)C(c1cnccc1C(F)(F)F)N(C)C(=O)Cc1cccc(C(F)(F)F)c1F (stereo not drawn) [I-29]		10%		60%	80%	90%	100%	80%		10%	50%	10%	80%	60%					10%	70%	Growth controlling degree (%) Crabgrass (crabgrass [1]; observed 20th to 28th day): 99%; Growth controlling degree (%) Prickly sida (prickly sida [3]; observed 20th to 28th day): 98%; Growth controlling degree (%) Redroot pigweed (redroot pigweed [9]; observed 20th to 28th day): 70%; Growth controlling degree (%) Velvetleaf (velvetleaf [13]; observed 20th to 28th day): 70%; Growth controlling degree (%) Corn (corn [14]; observed 20th to 28th day): 20%; Growth controlling degree (%) Green foxtail (green foxtail [15]; observed 20th to 28th day): 100%; Growth controlling degree (%) Barnyardgrass (barnyardgrass [16]; observed 20th to 28th day): 100%; Growth controlling degree (%) Soyabean (soybean [17]; observed 20th to 28th day): 10%; Growth controlling degree (%) Rice (rice [18]; observed 20th to 28th day): 30%
CCC(CC)C(c1cnccc1C(F)(F)F)N(C)C(=O)Cc1ccccc1 (stereo not drawn) [I-262]	100%	35%	90%	80%	95%	80%	98%	70%	70%	30%	80%	0%	90%	70%	60%	40%	95%	20%	60%	95%	Growth controlling degree (%) Soyabean (soybean [17]; [20]): 20%; Growth controlling degree (%) Rice (rice [18]; [20]): 50%
